In US7326710B2, “Aralkyl formyl-alkyl piperazine derivatives and their uses as a cerebral nerve protective agent” (Shanghai Institute of Pharmaceutical Industry, priority 2002, dated 2008):
Read-outs that look alike come from different tables or passages of the source. Marks after values point to notes of the source that are not given here.

What was measured:
NMDA receptor [1] = assay: Maximum contraction of isolated guinea pig longitudinal ileum muscle preparations induced by L-Glu; conditions: compound 10^−5M; contraction induced by L-Glu
Description: According to the literature (Luzzi, Br J Pharmacol, 95:1271, 1988), maximum contraction of isolated longitudinal ileomuscle preparations of guinea pig induced by L-Glu, were used to examine the activities of the compounds on the NMDA receptor.

[2] = tested on: primary culture of rat cerebral cortical neuronal cells; assay: Protective effect on neurons damaged with NMDA, LDH activity; assay type: cell-based; conditions: NMDA 1 mmol/L
Description: Primary culture of rat cerebral cortical neuronal cells were used. […] This is further evidence that IV-23 is a new NMDA receptor antagonist, and has anti-cerebral ischemic injury functions as well.

cerebral anoxia in mice = assay: Anoxic anoxia experiment in mice (closed wide-mouth bottles with soda lime); assay type: in vivo, Male Kunming mice
Description: Methods: Male Kunming mice were divided into 8 groups, 12 mice for each group. One group is injected subcutaneously with saline ([…], sc), other groups with ACEA1021 (NMDA receptor antagonist under clinical trial) or IV-23. 30 minutes after administration, the animals were put separately into wide-mouth bottles with soda lime, which more quickly closed. The survival time for each mice was recorded, and the group average of survival time was calculated and compared with the saline group.

[3] = tested on: global cerebral ischemia-reperfusion injury in rats; assay: Global cerebral ischemia-reperfusion in rats, four arteries reversible occlusion; assay type: in vivo
Description: The effect of IV-23 on cerebral ischemia-reperfusion in rats was studied using four arteries reversible occlusion by measuring the recovering time of the electroencephalogram and the righting reflex (a short time indicates a strong effect).

mammalian cultural cell = assay: Chromosome aberration trial in mammalian cultural cell; assay type: cell-based
Description: The chromosome aberration trial in mammalian cultural cell was negative.

[4] = tested on: focal cerebral ischemia in rats; assay: Temporary occlusion of the right MCA in rats caused by suture; assay type: in vivo; conditions: for Percent of volume (Means ± SEM) / Percent of infarct (%) (Means ± SEM): rats; for Percent of volume (Means ± SEM): length of ischemia 6 hr
Description: b. Temporary occlusion of the right MCA in rats caused by suture.

[5] = tested on: focal cerebral ischemia in rats; assay: Focal cerebral ischemia in rats by occlusion of middle cerebral artery (MCA); assay type: in vivo; conditions: 20 mg/kg p.o.
Description: The focal ischemia rat model by occlusion of middle cerebral artery (MCA) was used to determine the protective effects of the compounds on focal cerebral ischemia. The infarct size after focal cerebral ischemia and the weight percentage of cerebral hemisphere were calculated to evaluate the compounds' effects on focal cerebral ischemia.

NMDA receptor [6] = assay: Whole-cell patch clamp, current induced by NMDA in isolated rat CA1 pyramidal neuron; assay type: cell-based; conditions: NMDA 100 μm, n=4, read-out: IC50, inhibition of the electric current induced by NMDA
Description: Methods: The whole-cell patch-clamp technique. Separate the rat's hippocampi, slash the brain piece into 500 μm thick. Get the CA1 area of hippocampi, put it into artificial cerebral spinal fluid (ACSF) to incubate for more than 1 hour. Then the solution is oxygen saturated. After the incubation of the brain piece, put it into ACSF with protease XIII (1 mg/ml) for 5 minutes. Using trypsin inhibitor type II-S (3 mg/ml) to terminate the protease digestion, and then using test tube to break the brain piece to obtain free cells, let it stand for a while and then start the experiment.
The electro-physiological experiment used the technique of whole-cell patch-clamp. The amplifier in the experiment is Axon-200A patch-clamp amplifier, with the DigiData-1200A as a sampling port. The software used is AxoScope Version 1.0. The experiment uses as a standard the electric current generated by the whole-cell. The effect of various samples on the electric current was observed. IC50 was determined by proportion of different concentrations to the electric current of NMDA.

Acute toxicity = conditions: mouse, in vivo, mice, read-out: LD50 (95% confidence limit)
[7] = tested on: rats platelet aggregation induced by ADP; assay: Platelet aggregation induced by ADP; assay type: cell-based; conditions: concentration 1×10^−4M
rodent = assay: Rodent microkernel experiment; conditions: in vivo
Description: The rodent microkernel experiment of IV-23 was negative.

[8] = tested on: focal cerebral ischemia in rats; assay: Focal cerebral infarction, electrical coagulation to occlude MCA; assay type: in vivo; set-up: The neurological deficit score After the operation / The neurological deficit score 24 h: scale not given here
Ames test = assay type: cell-based
Description: The Ames test of IV-23 was negative.

[9] = tested on: focal cerebral ischemia in rats; assay: Focal cerebral infarction, electrical coagulation to occlude MCA; assay type: in vivo; set-up: The neurological deficit score After the operation / The neurological deficit score 24 h: scale not given here; remark: listed apart in the source
Description: a. The Focal Cerebral-Infarction of Using Electrical Coagulation to Occlude MCA:
For the 5 mg/kg group, the percentage of the rat's infarct size was decreased, but the difference is not significant (p=0.098). The effect is not significant for the Nimodipine mg/kg.

[10] = tested on: focal cerebral ischemia in rats; assay: Focal brain injury, occlusion of MCA induced by photochemical reaction; assay type: in vivo
Description: a. Focal brain injury caused by photochemical induction of occlusion of the artery:
The percentage of infarction was lowered by 52% at 24 hours after operation.

Compound: O=C(CN1CCN(CC(=O)c2ccccc2)CC1)NCc1ccccc1 [IV-23, N^1-phenacyl-N^4-[2-(benzylamino)-2-oxo-ethyl] piperazine]
- antagonism % (restrain rate of contraction of preparations) (NMDA receptor [1]): 40%
- LDH activities (U/g protein) (mean ± SEM) ([2]; Concentration 10): 1.86 ± 0.20 U/g protein
- Protective rate (%) ([2]; Concentration 10): 0%
- LDH activities (U/g protein) (mean ± SEM) ([2]; Concentration 50): 1.23 ± 0.14 U/g protein
- Protective rate (%) ([2]; Concentration 50): 48.1%
- LDH activities (U/g protein) (mean ± SEM) ([2]; Concentration 100): 1.05 ± 0.16 U/g protein
- Protective rate (%) ([2]; Concentration 100): 65.1%
- LDH activities (U/g protein) (mean ± SEM) ([2]; Concentration 200): 0.79 ± 0.19 U/g protein
- Protective rate (%) ([2]; Concentration 200): 89.6%
- Average survival time (min)(means ± S.E.M.) (cerebral anoxia in mice; 10 mg/kg sc): 16.46 ± 0.89 min
- Average survival time (min)(means ± S.E.M.) (cerebral anoxia in mice; 20 mg/kg sc): 17.11 ± 0.53 min
- Average survival time (min)(means ± S.E.M.) (cerebral anoxia in mice; 40 mg/kg sc): 19.26 ± 0.91 min
- Average survival time (min)(means ± S.E.M.) (cerebral anoxia in mice; 80 mg/kg sc): 20.04 ± 1.56 min
- ED50 (cerebral anoxia in mice; Mus musculus, sc, survival time in anoxic anoxia): 6.2 mg/kg
- Time for electroencephalogram to disappear(S) ([3]; High-dose (20 mg/kg ip)): 566.3 ± 430.3^*Δ S
- Time for electroencephalogram to recover (S) ([3]; High-dose (20 mg/kg ip)): 70.3 ± 20.1^***ΔΔΔ S
- Time for righting reflex to recover (S) ([3]; High-dose (20 mg/kg ip)): 147.0 ± 123.1^*ΔΔΔ S
- Time for electroencephalogram to disappear(S) ([3]; Low-dose (5 mg/kg ip)): 275.5 ± 338.1^*Δ S
- Time for electroencephalogram to recover (S) ([3]; Low-dose (5 mg/kg ip)): 184.6 ± 214.1^***ΔΔΔ S
- Time for righting reflex to recover (S) ([3]; Low-dose (5 mg/kg ip)): 550.0 ± 282.5^*ΔΔΔ S
- Time for electroencephalogram to disappear(S) ([3]; Middle-dose (10 mg/kg ip)): 557.1 ± 639.4^*Δ S
- Time for electroencephalogram to recover (S) ([3]; Middle-dose (10 mg/kg ip)): 334.3 ± 674.3^***ΔΔΔ S
- Time for righting reflex to recover (S) ([3]; Middle-dose (10 mg/kg ip)): 822.8 ± 741.9^*ΔΔ S
- chromosome aberration trial (mammalian cultural cell): negative
- reduce the volume (of cerebral infarction) by ([4]; 5 mg/kg, after 3 hours of ischemia): 46.3%
- Percent of volume (Means ± SEM) ([4]; 2.5 mg/kg): 15.42 ± 1.71%
- Percent of volume (Means ± SEM) ([4]; 5 mg/kg): 12.90 ± 1.11%
- Percent of infarct (%) (Means ± SEM) ([4]; 5 mg/kg, time of occlusion 1 hr): 1.31 ± 0.50%
- Percent of infarct (%) (Means ± SEM) ([4]; 5 mg/kg, time of occlusion 3 hr): 8.57 ± 1.42%
- Percent of infarct (%) (Means ± SEM) ([4]; 5 mg/kg, time of occlusion 6 hr): 12.90 ± 1.11%
- Percent of volume (Means ± SEM) ([4]; 10 mg/kg): 14.92 ± 1.40%
- Infarct volume [5]: 0.057 ± 0.012 g
- Neurological deficit After operation [5]: 9.4 ± 1.5
- IC50 (NMDA receptor [6]): 562.7 ± 1.1 µM
- LD50 (Acute toxicity; iv, i.v.): 133 mg/kg
- LD50 (Acute toxicity; po, p.o.): 856 mg/kg
- inhibition of platelet aggregation induced by ADP [7]: did inhibit
- rodent microkernel experiment (rodent): negative
- The neurological deficit score 24 h ([8]; High-dose (20 mg/kg)): 6.7 ± 2.6
- The neurological deficit score After the operation ([8]; High-dose (20 mg/kg)): 9.7 ± 0.5
- The percentage of infarction (%) ([8]; High-dose (20 mg/kg)): 14.2 ± 6.8 %
- The weight of infarct area ([8]; High-dose (20 mg/kg)): 0.11 ± 0.05 g
- The percentage of infarction (%) ([8]; middle-dose (10 mg/kg)): 13.4 ± 8.4 %
- The weight of infarct area ([8]; middle-dose (10 mg/kg)): 0.10 ± 0.06 g
- Ames test (Ames test): negative
- The neurological deficit score 24 h ([9]; Low-dose (5 mg/kg)): 8.1 ± 2.0
- The neurological deficit score After the operation ([9]; Low-dose (5 mg/kg)): 9.7 ± 0.5
- The percentage of infarction (%) ([9]; Low-dose (5 mg/kg)): 20.8 ± 8.8 %
- The weight of infarct area ([9]; Low-dose (5 mg/kg)): 0.15 ± 0.06 g
- The neurological deficit score 24 h ([9]; middle-dose (10 mg/kg)): 5.6 ± 2.7
- The neurological deficit score After the operation ([9]; middle-dose (10 mg/kg)): 9.6 ± 0.5
- percentage of infarction lowered by ([10]; compared with vehicle (saline), 24 hours after operation): 52%
- Necrotic percent (%) ([10]; rats, 2 mg/kg): 11 ± 3***^ΔΔΔ %
- Score of praxiology After operation ([10]; rats, 2 mg/kg): 9.6 ± 0.5
- Weight of necrotic area (g) ([10]; rats, 2 mg/kg): 0.08 ± 0.02***^ΔΔΔ g
- Score of praxiology 24 h ([10]; rats, 2 mg/kg, 24 h): 5.4 ± 1.9***^Δ
